{
  "source": "patent US9161562B2",
  "about": "“Natural sweetener” (Horizon Science Pty Ltd, priority 2004, dated 2015)",
  "key": {"[1]": {"conditions": "scale 1 to 100, glucose rated 100, cited from earlier work"}, "[2]": {"system": "healthy people", "assay": "Glycemic Index (GI) test, two-hour blood glucose response vs glucose reference", "type": "in vivo, humans", "conditions": "when added to sugar; conclusion of Example 11", "procedure": "This study was conducted by the Human Nutrition Unit at the University of Sydney using internationally recognised GI methodology, which has been validated by results obtained from small experimental studies and large multi-centre research trials. The experimental procedures used in this study were in accordance with international standards for conducting ethical research with humans and were approved by the Human Research Ethics Committee of Sydney University.\nUsing standard methodology to determine a food's GI value, a portion of the food containing between 10 and 50 grams of available carbohydrate is fed to 10 healthy people the morning after they have fasted for 10-12 hours overnight. A fasting blood sample is first obtained from each person and then the food is consumed, after which additional blood samples are obtained at regular intervals during the next two hours. In this way, it's possible to measure the total increase in blood sugar produced by that food over a two-hour period. […]\nFor each subject, the concentration of glucose in each of the eight whole blood samples collected from them during each test session was analysed in duplicate using a HemoCue® B-glucose photometric analyser employing a glucose dehydrogenase/mutarotase enzymatic assay (HemoCue AB, Ängelholm, Sweden). […] Therefore, each blood sample was analysed immediately after it was collected. […]"}},
  "note": "Read-outs that look alike come from different tables or passages of the source.",
  "data": [
    {"molecule": "O=C(CO)[C@@H](O)[C@H](O)[C@H](O)CO", "note": "[fructose]", "values": [
      {"measurement": "glycemic index (GI)", "setting": "[1]", "result": 23}
    ]},
    {"molecule": "O=C[C@H](O)[C@@H](O)[C@@H](O)[C@H](O)CO", "note": "[galactose]", "values": [
      {"measurement": "effect on the GI of sugar", "setting": "[2]", "result": "reduces the GI to a low level"}
    ]},
    {"molecule": "OC[C@H]1O[C@@](CO)(O[C@H]2O[C@H](CO)[C@@H](O)[C@H](O)[C@H]2O)[C@@H](O)[C@@H]1O", "note": "[sucrose]", "values": [
      {"measurement": "glycemic index (GI)", "setting": "[1]", "result": "about 65"},
      {"measurement": "glycemic index (GI)", "setting": "[1]; listed as table sugar", "result": 65}
    ]}
  ]
}
